Experimental data as given in patent US20170260178A1 (SPERO GYRASE, INC., priority 2012, published 2017).
Converted amounts (≈) assume the structure as drawn.

Tests used:
[1] = system: S. pyogenes (ATCC 51339); experiment: Bacterial assay: MIC against S. pyogenes; assay type: cell-based, Streptococcus pyogenes; details: for MIC: Streptococcus pyogenes, ATCC51339, read-out: minimal inhibitory concentration (MIC)
[2] = system: S. aureus (ATCC 29213); experiment: Bacterial assay: MIC against S. aureus; assay type: cell-based, Staphylococcus aureus; details: for MIC: Staphylococcus aureus, ATCC29213, read-out: minimal inhibitory concentration (MIC); for minimal inhibitory concentration (MIC): S. aureus ATCC 29213

Molecule: CCNC(=O)Nc1nc2cc(-c3cnc(C(C)O)nc3)cc(-c3cc(CN4CC[C@@H](O)C4)ccn3)c2s1 (stereo partly drawn) [Compound 77, 1-ethyl-3-[5-[2-(1-hydroxyethyl)pyrimidin-5-yl]-7-[4-[[(3R)-3-hydroxypyrrolidin-1-yl]methyl]-2-pyridyl]-1,3-benzothiazol-2-yl]urea]
- MIC [1]: ≤ 1 mg/L
- MIC [2]: ≤ 1 mg/L

Molecule: CCNC(=O)Nc1nc2cc(-c3cnc(C(C)(C)O)nc3)c(NCCOC)cc2s1 [Compound 150, 1-ethyl-3-[5-[2-(1-hydroxy-1-methyl-ethyl)pyrimidin-5-yl]-6-(2-methoxyethylamino)-1,3-benzothiazol-2-yl]urea]
- MIC [1]: 8 mg/L (≈ 18.6 µM)
- MIC [2]: 2 mg/L (≈ 4.65 µM)

Molecule: CCNC(=O)Nc1nc2cc(-c3ccc(C(C)(C)O)nc3)c(O)c(CN3CCOCC3)c2s1 [Compound 44, 1-ethyl-3-[6-hydroxy-5-[6-(1-hydroxy-1-methyl-ethyl)-3-pyridyl]-7-(morpholinomethyl)-1,3-benzothiazol-2-yl]urea]
- MIC [1]: 16 mg/L (≈ 33.9 µM)
- MIC [2]: 16 mg/L (≈ 33.9 µM)

Molecule: CCNC(=O)Nc1nc2cc(-c3cnc(C(C)(C)OC(=O)N4CCN(C)CC4)nc3)cc(-c3ccccn3)c2s1 [Compound 89, [1-[5-[2-(ethylcarbamoylamino)-7-(2-pyridyl)-1,3-benzothiazol-5-yl]pyrimidin-2-yl]-1-methyl-ethyl] 4-methylpiperazine-1-carboxylate]
- MIC [1]: 2 mg/L (≈ 3.57 µM)
- MIC [2]: 8 mg/L (≈ 14.3 µM)

Molecule: CCNC(=O)Nc1nc2cc(-c3cnc(C(C)(C)O)nc3)cc(-c3ccc(CC(=O)O)cn3)c2s1 [Compound 46, 2-[6-[2-(ethylcarbamoylamino)-5-[2-(1-hydroxy-1-methyl-ethyl)pyrimidin-5-yl]-1,3-benzothiazol-7-yl]-3-pyridyl]acetic acid]
- MIC [1]: 4 mg/L (≈ 8.12 µM)
- MIC [2]: 4 mg/L (≈ 8.12 µM)

Molecule: CCNC(=O)Nc1nc2cc(-c3cnc(C(C)O)nc3)cc(-c3cc(N4CCC(C)(C(=O)O)CC4)ncn3)c2s1 (centres unmarked) [Compound 109, 1-[6-[2-(ethylcarbamoylamino)-5-[2-(1-hydroxyethyl)pyrimidin-5-yl]-1,3-benzothiazol-7-yl]pyrimidin-4-yl]-4-methyl-piperidine-4-carboxylic acid]
- MIC [1]: ≤ 1 mg/L
- MIC [2]: 2 mg/L (≈ 3.55 µM)

Molecule: CCNC(=O)Nc1nc2cc(-c3cnc(C(C)(C)O)nc3)cc(-c3cc(CN4C[C@@H](C)O[C@@H](C)C4)ccn3)c2s1 [Compound 164, 1-[7-[4-[[(2R,6S)-2,6-dimethylmorpholin-4-yl]methyl]-2-pyridyl]-5-[2-(1-hydroxy-1-methyl-ethyl)pyrimidin-5-yl]-1,3-benzothiazol-2-yl]-3-ethyl-urea]
- MIC [1]: ≤ 1 mg/L
- MIC [2]: ≤ 1 mg/L

Molecule: CCNC(=O)Nc1nc2cc(-c3ccc(C(O)C(F)(F)F)nc3)cc(-c3cc(CN4CCOCC4)ccn3)c2s1 (centres unmarked) [Compound 108, 1-ethyl-3-[7-[4-(morpholinomethyl)-2-pyridyl]-5-[6-(2,2,2-trifluoro-1-hydroxy-ethyl)-3-pyridyl]-1,3-benzothiazol-2-yl]urea]
- MIC [1]: ≤ 1 mg/L
- MIC [2]: ≤ 1 mg/L

Molecule: CCNC(=O)Nc1nc2cc(-c3cnc(C(C)O)nc3)cc(-c3nccc(N4CC(O)C4)n3)c2s1 (centres unmarked) [Compound 105, 1-ethyl-3-[7-[4-(3-hydroxyazetidin-1-yl)pyrimidin-2-yl]-5-[2-(1-hydroxyethyl)pyrimidin-5-yl]-1,3-benzothiazol-2-yl]urea]
- MIC [1]: ≤ 1 mg/L
- MIC [2]: 16 mg/L (≈ 32.5 µM)

Molecule: CCNC(=O)Nc1nc2cc(-c3cnc(C(C)(C)O)nc3)cc(-c3cc(CN4CCC(F)(F)CC4)ccn3)c2s1 [Compound 156, 1-[7-[4-[(4,4-difluoro-1-piperidyl)methyl]-2-pyridyl]-5-[2-(1-hydroxy-1-methyl-ethyl)pyrimidin-5-yl]-1,3-benzothiazol-2-yl]-3-ethyl-urea]
- MIC [1]: ≤ 1 mg/L
- MIC [2]: ≤ 1 mg/L

Molecule: CCNC(=O)Nc1nc2cc(-c3cnc(C(C)(C)O)nc3)cc(-c3cc(N4CCC(C(=O)O)CC4)ccn3)c2s1 [Compound 110, 1-[2-[2-(ethylcarbamoylamino)-5-[2-(1-hydroxy-1-methyl-ethyl)pyrimidin-5-yl]-1,3-benzothiazol-7-yl]-4-pyridyl]piperidine-4-carboxylic acid]
- MIC [1]: ≤ 1 mg/L
- MIC [2]: 2 mg/L (≈ 3.56 µM)

Molecule: CCNC(=O)Nc1nc2cc(-c3cnc(C4(O)CCCCC4)nc3)cc(-c3ccccn3)c2s1 [Compound 47, 1-ethyl-3-[5-[2-(1-hydroxycyclohexyl)pyrimidin-5-yl]-7-(2-pyridyl)-1,3-benzothiazol-2-yl]urea]
- MIC [1]: 8 mg/L (≈ 16.9 µM)
- MIC [2]: 8 mg/L (≈ 16.9 µM)

Molecule: CCNC(=O)Nc1nc2cc(-c3cnc(C(C)(C)O)nc3)c(OCC3CC3)cc2s1 [Compound 182, 1-[6-(cyclopropylmethoxy)-5-[2-(1-hydroxy-1-methyl-ethyl)pyrimidin-5-yl]-1,3-benzothiazol-2-yl]-3-ethyl-urea]
- MIC [1]: ≤ 1 mg/L
- MIC [2]: ≤ 1 mg/L

Molecule: CCNC(=O)Nc1nc2cc(-c3cnc(C(C)O)nc3)cc(-c3cc(C[S+](C)[O-])ccn3)c2s1 (centres unmarked) [Compound 16, 1-ethyl-3-[5-[2-(1-hydroxyethyl)pyrimidin-5-yl]-7-[4-(methylsulfinylmethyl)-2-pyridyl]-1,3-benzothiazol-2-yl]urea]
- MIC [1]: ≤ 1 mg/L
- MIC [2]: 2 mg/L (≈ 4.03 µM)

Molecule: 1-ethyl-3-[7-[4-(4-ethylpiperazin-1-yl)pyridin-2-yl]-5-[2-(1-hydroxy-1-methyl-ethyl)pyrimidin-5-yl]-1,3-benzothiazol-2-yl]urea [Compound 79]
- minimal inhibitory concentration (MIC) ([1]; S. pyogenes ATCC 51339): 2 mg/L
- minimal inhibitory concentration (MIC) [2]: 2 mg/L

Molecule: CCNC(=O)Nc1nc2cc(-c3cnc(C(C)(C)O)nc3)cc(-c3cc(CN4CCC(F)(F)C4)ccn3)c2s1 [Compound 34, 1-[7-[4-[(3,3-difluoropyrrolidin-1-yl)methyl]-2-pyridyl]-5-[2-(1-hydroxy-1-methyl-ethyl)pyrimidin-5-yl]-1,3-benzothiazol-2-yl]-3-ethyl-urea]
- MIC [1]: ≤ 1 mg/L
- MIC [2]: ≤ 1 mg/L

Molecule: CCCNC(=O)Nc1nc2cc(-c3cnc(C(C)(C)O)nc3)cc(-c3ccccn3)c2s1 [Compound 57, 1-[5-[2-(1-hydroxy-1-methyl-ethyl)pyrimidin-5-yl]-7-(2-pyridyl)-1,3-benzothiazol-2-yl]-3-propyl-urea]
- MIC [1]: 2 mg/L (≈ 4.46 µM)
- MIC [2]: ≤ 1 mg/L

Molecule: CCNC(=O)Nc1nc2cc(-c3ccc(C(C)(C)O)nc3)c(O)c(CN(C)C)c2s1 [Compound 41]
- MIC [1]: 16 mg/L (≈ 37.2 µM)
- MIC [2]: 16 mg/L (≈ 37.2 µM)

Molecule: CCNC(=O)Nc1nc2cc(-c3cnc(C(C)(C)O)nc3)cc(-c3nccc(NCCO)n3)c2s1 [Compound 85, 1-ethyl-3-[7-[4-(2-hydroxyethylamino)pyrimidin-2-yl]-5-[2-(1-hydroxy-1-methyl-ethyl)pyrimidin-5-yl]-1,3-benzothiazol-2-yl]urea]
- MIC [1]: ≤ 1 mg/L
- MIC [2]: 2 mg/L (≈ 4.04 µM)

Molecule: CCNC(=O)Nc1nc2cc(-c3cncc(C(C)O)c3)cc(-c3ccccn3)c2s1 (centres unmarked) [Compound 197, 1-ethyl-3-[5-[5-(1-hydroxyethyl)-3-pyridyl]-7-(2-pyridyl)-1,3-benzothiazol-2-yl]urea]
- MIC [1]: ≤ 1 mg/L
- MIC [2]: ≤ 1 mg/L

Molecule: CCNC(=O)Nc1nc2cc(-c3cnc(C(C)O)nc3)cc(-c3cc(CN4CCC(C)(O)C4)ccn3)c2s1 (centres unmarked) [Compound 84, 1-ethyl-3-[5-[2-(1-hydroxyethyl)pyrimidin-5-yl]-7-[4-[(3-hydroxy-3-methyl-pyrrolidin-1-yl)methyl]-2-pyridyl]-1,3-benzothiazol-2-yl]urea]
- MIC [1]: ≤ 1 mg/L
- MIC [2]: ≤ 1 mg/L

Molecule: CCNC(=O)Nc1nc2cc(-c3cnc(C(C)(C)O)nc3)cc(COC)c2s1 [Compound 13, 1-ethyl-3-[5-[2-(1-hydroxy-1-methyl-ethyl)pyrimidin-5-yl]-7-(methoxymethyl)-1,3-benzothiazol-2-yl]urea]
- MIC [1]: 2 mg/L (≈ 4.98 µM)
- MIC [2]: ≤ 1 mg/L

Molecule: CCNC(=O)Nc1nc2cc(-c3cnc(C(C)(C)O)nc3)cc(-c3cc(CN4CC(C)(O)C4)ccn3)c2s1 [Compound 2, 1-ethyl-3-[7-[4-[(3-hydroxy-3-methyl-azetidin-1-yl)methyl]-2-pyridyl]-5-[2-(1-hydroxy-1-methyl-ethyl)pyrimidin-5-yl]-1,3-benzothiazol-2-yl]urea]
- MIC [1]: ≤ 1 mg/L
- MIC [2]: ≤ 1 mg/L

Molecule: CCNC(=O)Nc1nc2cc(-c3cnc(C(C)(C)O)nc3)c(OCCO)cc2s1 [Compound 186, 1-ethyl-3-[6-(2-hydroxyethoxy)-5-[2-(1-hydroxy-1-methyl-ethyl)pyrimidin-5-yl]-1,3-benzothiazol-2-yl]urea]
- MIC [1]: 2 mg/L (≈ 4.79 µM)
- MIC [2]: 4 mg/L (≈ 9.58 µM)

Molecule: CC(C)(O)c1ncc(-c2cc(-c3ccccn3)c3sc(NC(=O)NCCO)nc3c2)cn1 [Compound 5, 1-(2-hydroxyethyl)-3-[5-[2-(1-hydroxy-1-methyl-ethyl)pyrimidin-5-yl]-7-(2-pyridyl)-1,3-benzothiazol-2-yl]urea]
- MIC [1]: ≤ 1 mg/L
- MIC [2]: 16 mg/L (≈ 35.5 µM)

Molecule: CCNC(=O)Nc1nc2cc(-c3cnc(C(C)(C)OC(=O)CCC(=O)O)nc3)cc(-c3ccccn3)c2s1 [Compound 21, 4-[1-[5-[2-(ethylcarbamoylamino)-7-(2-pyridyl)-1,3-benzothiazol-5-yl]pyrimidin-2-yl]-1-methyl-ethoxy]-4-oxo-butanoic acid]
- MIC [1]: ≤ 1 mg/L
- MIC [2]: 4 mg/L (≈ 7.48 µM)

Molecule: CCNC(=O)Nc1nc2cc(-c3cnc(C(C)(C)O)nc3)cc(-c3cc(CNCCO)ccn3)c2s1 [Compound 196, 1-ethyl-3-[7-[4-[(2-hydroxyethylamino)methyl]-2-pyridyl]-5-[2-(1-hydroxy-1-methyl-ethyl)pyrimidin-5-yl]-1,3-benzothiazol-2-yl]urea]
- MIC [2]: 2 mg/L (≈ 3.94 µM)

Molecule: CCNC(=O)Nc1nc2cc(-c3cnc(N4CCC(C)(C(=O)O)CC4)nc3)cc(-c3ccc(C(C)(C)O)cn3)c2s1 [Compound 99, 1-[5-[2-(ethylcarbamoylamino)-7-[5-(1-hydroxy-1-methy-ethyl)-2-pyridyl]-1,3-benzothiazol-5-yl]pyrimidin-2-yl]-4-methyl-piperidine-4-carboxylic acid]
- minimal inhibitory concentration (MIC) [2]: 2 mg/L (≈ 3.47 µM)

Molecule: CCNC(=O)Nc1nc2cc(-c3cnc(C4(O)CNC4)nc3)cc(-c3ccccn3)c2s1 [Compound 163, 1-ethyl-3-[5-[2-(3-hydroxyazetidin-3-yl)pyrimidin-5-yl]-7-(2-pyridyl)-1,3-benzothiazol-2-yl]urea]
- MIC [1]: 8 mg/L (≈ 17.9 µM)

Molecule: CCNC(=O)Nc1nc2cc(-c3cnc(C(C)O)nc3)c(N3CCOCC3)cc2s1 (centres unmarked) [Compound 194, 1-ethyl-3-[5-[2-[1-hydroxyethyl]pyrimidin-5-yl]-6-morpholino-1,3-benzothiazol-2-yl]urea]
- MIC [2]: 16 mg/L (≈ 37.3 µM)
